Laboratory results taken from patent US20140096445A1, “METHOD OF CULTIVATION IN WATER DEFICIT CONDITIONS” (SYNGENTA PARTICIPATIONS AG, priority 2011, published 2014).

How the values were obtained:
Assay type in all cases: in vivo
corn [1] = assay: Sprinkler irrigation management field test, full vs deficit irrigation, Examples 9-10; conditions: 261 gai/ha, 60% irrigated deficit
Procedure: A completely random test design (split plot) was conducted using Sprinkler Irrigation. This was an irrigation management test to study treatment effects on yield under full irrigation and deficit irrigation conditions. The field study was set up with four replications and tested on silt loam soil. Overhead sprinkler irrigation and overhead sprinkler chemigation was used in this study. Each plot was 4 rows wide (3 meters) by 9.1 meters long. Soil water status was monitored throughout the growing season using soil moisture sensors. Corn seed was planted with a precision planter at a depth of 2 inches and rows spaced at 30 inches. The planting population was 30,000 seeds per acre. Testing parameters, irrigation levels, and harvesting were conducted according to the University of Nebraska experimental procedure (see, e.g.,: Irmak, S, D. Z. Haman, and R. Bastug. Determination of Crop Water Stress Index for irrigation Timing and Yield Estimation of Corn. 2000. Agronomy Journal. 92:1221-1227). Moisture levels, irrigation levels, and plant health were measured throughout the growing season. Climatic variables were measured (air temperature, rainfall, solar and net radiation, relative humidity, rainfall, wind speed and direction) throughout the season. Irrigation for the fully irrigated treatments was scheduled according crop need based on soil water measurements. The deficit irrigation treatments were scheduled at approximately 60% of the fully irrigated plots (1.2 inches/acre vs. 2 inches of water/acre, respectively). Volumetric soil water content was measured on a weekly basis throughout the crop season to determine total water use. Maintenance crop protection products were applied as needed to manage weeds & pests throughout the season for all treatments including the control. Azoxystrobin (Quadris) was applied via overhead sprinkler irrigation at 261 grams active ingredient/hectare or by foliar application (tractor mounted sprayer) at 261 grams active ingredient/hectare at approximately V6 & R1 stages of the corn. Crop yield from each replication was recorded after harvest and adjusted to 15% moisture content.

soybean = assay: Lateral-move sprinkler irrigation field study on soybean, Examples 29-30; conditions: for % IWUE Increase over Untreated / % Seed Mass Increase over Untreated / % Yield Increase over Untreated / IWUE (water productivity) / Seed Mass / Yield: foliar 150 gai/ha, average of 60% & 100% irrigated
corn [2] = assay: Subsurface drip irrigation (SDI) chemigation field study, limited (deficit) vs fully irrigated, Examples 1-2; conditions: 261 gai/ha, 50% irrigated deficit

In the case of CO/C=C(/C(=O)OC)c1ccccc1Oc1cc(Oc2ccccc2C#N)ncn1 [Azoxystrobin, azoxystrobin], the Yield (corn [1]; foliar-applied (V6 & R1)) is reported as 196 Bu./acre, the “Azoxystrobin % Yield Increase over 60% Untr.” value (corn [1]; foliar-applied) is reported as “+3% Incr” and the “Azoxystrobin % Yield Increase over 100% Untr.” value (corn [1]; foliar-applied) is reported as “+4% Incr”. For the same compound, the Yield (corn [1]; sprinkler chemigated (V6 & R1)) was 197 Bu./acre, the “Azoxystrobin % Yield Increase over 60% Untr.” value (corn [1]; sprinkler chemigated) was “+4% Incr” and the “Azoxystrobin % Yield Increase over 100% Untr.” value (corn [1]; sprinkler chemigated) was “+5% Incr”. The “Seed mass, statistical statement” value (soybean; all Quadris treatments) was “Statistically significant difference in seed mass”, the “% IWUE Increase over Untreated” value (soybean; one application) was “+2% over” and the “% Seed Mass Increase over Untreated” value (soybean; one application) was “+3% over”. For the same compound, the “% Yield Increase over Untreated” value (soybean; one application) was “+2% over”, the “IWUE (water productivity)” value (soybean; one application) was 129 lbs/acre-inch and the “Seed Mass” value (soybean; one application) was 148a mg. For the same compound, the Yield (soybean; one application) was 48.4 Bu./acre, the “Water productivity, in words” value (soybean; soybean, sprinkler irrigation) was “increase in water productivity” and the “% IWUE Increase over Untreated” value (soybean; two applications) was “+6% over”. The “% Seed Mass Increase over Untreated” value (soybean; two applications) was “+6% over”, the “% Yield Increase over Untreated” value (soybean; two applications) was “+5% over” and the “IWUE (water productivity)” value (soybean; two applications) was 133 lbs/acre-inch. For the same compound, the “Seed Mass” value (soybean; two applications) was 151a mg, the Yield (soybean; two applications) was 49.7 Bu./acre and the Yield (corn [2]; SDI chemigated twice (V8 & V8+14da.)) was 217 Bu./acre. For the same compound, the “Azoxystrobin % IWUE Increase over Untr./50% Irr.” value (corn [2]; SDI chemigated) was “+40% incr”, the “Azoxystrobin % IWUE Increase over Untr./100% irr.” value (corn [2]; SDI chemigated) was “+114% incr” and the “Azoxystrobin % Yield Increase over Untr./50% Irr.” value (corn [2]; SDI chemigated) was “+11% incr”. The “Azoxystrobin % Yield Increase over Untr./100% irr.” value (corn [2]; SDI chemigated) was “+2.4% incr”, the “IWUE (irrigation water use efficiency)” value (corn [2]; SDI chemigated) was 22.9 Bu./inch and the “Azoxystrobin % IWUE Increase over Untr./100% irr.” value (corn [2]; SDI chemigated, listed as Quadris) was 114%. The Yield (corn [2]; foliar applied twice (V8 & V8+14da.)) was 211 Bu./acre, the “Azoxystrobin % IWUE Increase over Untr./50% Irr.” value (corn [2]; foliar applied) was “+29% incr” and the “Azoxystrobin % IWUE Increase over Untr./100% irr.” value (corn [2]; foliar applied) was “+97% incr”. For the same compound, the “Azoxystrobin % Yield Increase over Untr./50% Irr.” value (corn [2]; foliar applied) was “+11% incr”, the “Azoxystrobin % Yield Increase over Untr./100% irr.” value (corn [2]; foliar applied) was “+0% incr. over” and the “IWUE (irrigation water use efficiency)” value (corn [2]; foliar applied) was 21.1 Bu./inch.
